This is an account of results in patent US20120295845A1, “IMIDAZO-PYRAZOLES AS GPR119 INHIBITORS” (Pfizer Inc, priority 2009, published 2012).

Assay [1] addresses T1, human GPR119 (Homo sapiens, UniProt Q8TDV5).
T1 construct: host or cells: U2OS
Description: beta-arrestin functional assay (DiscoverX PathHunter U2OS hGPR119 beta-arrestin cells). In kind it is cell-based. The following applies: for EC50: read-out: Human B-arrestin Functional EC50; for Emax: U2OS, read-out: Intrinsic Activity* (B-arrestin). On the procedure:
GPR119 agonist activity was also determined with a cell-based assay utilizing DiscoverX PathHunter β-arrestin cell assay technology and their U2OS hGPR119 β-arrestin cell line (DiscoverX Cat # 93-0356C3). In this assay, agonist activation is determined by measuring agonist-induced interaction of β-arrestin with activated GPR119. A small, 42 amino acid enzyme fragment, called ProLink was appended to the C-terminus of GPR119. Arrestin was fused to the larger enzyme fragment, termed EA (Enzyme Acceptor). Activation of GPR119 stimulates binding of arrestin and forces the complementation of the two enzyme fragments, resulting in formation of a functional β-galactosidase enzyme capable of hydrolyzing substrate and generating a chemiluminescent signal.
Specifically, U2OS hGPR119 β-arrestin cells (DiscoverX 1×10^7/mL) are removed from cryopreservation and diluted in growth medium (Minimum essential medium (MEM; Gibco Cat # 11095-080), 10% heat inactivated fetal bovine serum (HIFBS; Sigma Cat # F4135-100), […] sodium pyruvate (Sigma Cat # S8636), 500 microg/mL G418 (Sigma Cat # G8168) and 250 microg/mL Hygromycin B (Invitrogen Cat # 10687-010). The cell concentration was adjusted to 1.66×10^5 cells/mL and 30 mLs of this suspension was added to a T-175 flask and incubated at 37 degrees Celsius in a humidified environment in 5% carbon dioxide. After 48 hours, the cells were removed from the T-175 flask with enzyme-free cell dissociation buffer (Gibco cat # 13151-014), centrifuged at 800×g and then re-suspended in plating medium (Opti-MEM I (Invitrogen/BRL Cat # 31985-070) and 2% charcoal dextran treated fetal bovine serum (CD serum; HyClone Cat # SH30068.03). The cell concentration was adjusted to 2.5×10^5 cells/mL with plating medium and 10 microL of this cell suspension (2500 cells) was added to each well of a white Greiner 384-well low volume assay plate (VWR cat # 82051-458) and the plates were incubated at 37 degrees Celsius in a humidified environment in 5% carbon dioxide.
After 16 hours (overnight) the assay plates were removed from the incubator and varying concentrations of each compound to be tested (diluted in assay buffer (1×HBSS+CaCl2+MgCl2 (Gibco Cat # 14025-092), 20 mM HEPES pH 7.0 (Gibco Cat # 15630-080) and 0.1% BSA (Sigma Cat # A9576)) were added to the assay plate wells in a volume of 2.5 microL (final DMSO concentration was 0.5%). After a 90 minute incubation at 37 degrees Celsius in a humidified environment in 5% carbon dioxide, 7.5 microL of Galacton Star β-galactosidase substrate (Path Hunter Detection Kit (DiscoveRx Cat # 93-0001); prepared as described in the manufacturers assay protocol) was added to each well of the assay plate. The plates were incubated at room temperature and after 60 minutes, changes in the luminescence were read with an Envision 2104 multilabel plate reader at 0.1 seconds per well. EC50 determinations were made from an agonist-response curves analyzed with a curve fitting program using a 4-parameter logistic dose response equation.
T1 sequence (P32121 whole entry partner, one chain of several): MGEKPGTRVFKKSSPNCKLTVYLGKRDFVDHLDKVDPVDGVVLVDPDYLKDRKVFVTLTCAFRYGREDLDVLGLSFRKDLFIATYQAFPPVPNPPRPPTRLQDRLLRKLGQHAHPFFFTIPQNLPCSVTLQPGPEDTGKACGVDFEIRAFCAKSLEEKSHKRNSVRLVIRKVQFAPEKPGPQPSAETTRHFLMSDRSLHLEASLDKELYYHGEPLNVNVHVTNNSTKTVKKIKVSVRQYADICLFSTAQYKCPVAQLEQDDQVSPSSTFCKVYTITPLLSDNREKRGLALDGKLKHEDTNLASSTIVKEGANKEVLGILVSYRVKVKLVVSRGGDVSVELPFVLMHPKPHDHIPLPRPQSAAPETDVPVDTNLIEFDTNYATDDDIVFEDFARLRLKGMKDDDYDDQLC

Assay [2] addresses T2, human GPR119 (Homo sapiens, UniProt Q8TDV5).
T2 construct: host or cells: HEK293-CRE beta-lactamase cells
T2 sequence (Q8TDV5 1-335): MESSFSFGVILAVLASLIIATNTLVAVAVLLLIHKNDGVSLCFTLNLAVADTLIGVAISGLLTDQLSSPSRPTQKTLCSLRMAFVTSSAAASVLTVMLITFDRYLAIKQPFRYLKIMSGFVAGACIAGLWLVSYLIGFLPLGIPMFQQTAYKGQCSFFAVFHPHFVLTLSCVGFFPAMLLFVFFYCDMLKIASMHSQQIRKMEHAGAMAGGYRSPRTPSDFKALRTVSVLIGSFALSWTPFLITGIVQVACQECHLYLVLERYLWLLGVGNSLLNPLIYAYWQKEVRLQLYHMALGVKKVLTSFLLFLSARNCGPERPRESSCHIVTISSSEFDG
Description: beta-lactamase functional assay (hGPR119 HEK293-CRE beta-lactamase reporter). In kind it is cell-based. The following applies: for EC50: read-out: Human B-lactamase Functional EC50; for Emax: read-out: Intrinsic Activity* (B-lactamase). The method, then: The assay for GPR119 agonists utilizes a cell-based (hGPR119 HEK293-CRE beta-lactamase) reporter construct where agonist activation of human GPR119 is coupled to beta-lactamase production via a cyclic AMP response element (CRE). GPR119 activity is then measured utilizing a FRET-enabled beta-lactamase substrate, CCF4-AM (Live Blazer FRET-B/G Loading kit, Invitrogen cat # K1027). Specifically, hGPR119-HEK-CRE- beta-lactamase cells (Invitrogen 2.5×10^7/mL) were removed from liquid nitrogen storage, and diluted in plating medium (Dulbecco's modified Eagle medium high glucose (DMEM; Gibco Cat # 11995-065), 10% heat inactivated fetal bovine serum (HIFBS; Sigma Cat # F4135), 1×MEM Nonessential amino acids (Gibco Cat # 15630-080), 25 mM HEPES pH 7.0 (Gibco Cat # 15630-080), 200 nM potassium clavulanate (Sigma Cat # P3494). The cell concentration was adjusted using cell plating medium and 50 microL of this cell suspension ([…]) was added into each well of a black, clear bottom, poly-d-lysine coated 384-well plate (Greiner Bio-One cat# 781946) and incubated at 37 degrees Celsius in a humidified environment containing 5% carbon dioxide. After 4 hours the plating medium was removed and replaced with 40 microL of assay medium (Assay medium is plating medium without potassium clavulanate and HIFBS). Varying concentrations of each compound to be tested was then added in a volume of 10 microL (final DMSO≦0.5%) and the cells were incubated for 16 hours at 37 degrees Celsius in a humidified environment containing 5% carbon dioxide. Plates were removed from the incubator and allowed to equilibrate to room temperature for approximately 15 minutes. 10 microL of 6×CCF4/AM working dye solution (prepared according to instructions in the Live Blazer FRET-B/G Loading kit, Invitrogen cat # K1027) was added per well and incubated at room temperature for 2 hours in the dark. Fluorescence was measured on an EnVision fluorimetric plate reader, excitation 405 nm, emission 460 nm/535 nm. EC50 determinations were made from agonist-response curves analyzed with a curve fitting program using a 4-parameter logistic dose-response equation.

Where [3] appears, read: U2OS hGPR119 beta-arrestin cells, 90 min incubation, one value per run.
Setting [4] is: percent of maximal activity relative to standard GPR119 agonist (WO2005121121) at 10 microM, one value per run.
Where [5] appears, read: marked **: curve extrapolated to 100%, relative to standard GPR119 agonist at 10 microM.

The structures appear in SMILES notation. Several values for one entry are separate records, joined by “and”; a condition that tells them apart may be missing. Equal values may be shown once.

Usually EC50 stands for the concentration needed to bring the measured effect to its halfway point. On to `Cc1c(O[C@H]2CCN(C(=O)OC(C)C)C[C@H]2F)ncnc1N1CCn2nccc21` (racemic) [Example 4, Isopropyl (3R,4S)-4-{[6-(2,3-dihydro-1H-imidazo[1,2-b]pyrazol-1-yl)-5-methylpyrimidin-4-yl]oxy}-3-fluoropiperidine-1-carboxylate (racemic)], for which the EC50 in assay [1] (setting [3]) was 53 nM. Besides, the Emax in assay [1] (setting [4]) is 38%.

Turning to `Cc1c(O[C@H]2CCN(C(=O)OC3(C)CC3)C[C@H]2F)ncnc1N1CCn2nccc21` (racemic) [Example 3, 1-Methylcyclopropyl (3R,4S)-4-{[6-(2,3-dihydro-1H-imidazo[1,2-b]pyrazol-1-yl)-5-methylpyrimidin-4-yl]oxy}-3-fluoropiperidine-1-carboxylate (racemic)], in assay [1] (setting [3]), the EC50 was 74 nM and 92 nM. In assay [1] (setting [4]), the Emax was determined as 83% and the “Intrinsic Activity* (B-arrestin)” value is 68%.

For the compound `Cc1c(OC2CCN(C(=O)OC3(C)CC3)CC2)ncnc1N1CCn2nccc21` [Example 2, 1-Methylcyclopropyl 4-{[6-(2,3-dihydro-1H-imidazo[1,2-b]pyrazol-1-yl)-5-methylpyrimidin-4-yl]oxy}piperidine-1-carboxylate], the Emax in assay [1] (setting [5]) is 100%. The EC50 in assay [1] (curve was extrapolated to 100% to calculate the EC50 (**)) was 313 nM.

In the case of `Cc1c(O[C@H]2CCN(C(=O)OC3(C)CC3)C[C@H]2F)ncnc1N1CCn2nccc21` (single isomer, unassigned) [Example 6], the EC50 in assay [1] (setting [3]) is 47 nM and 121 nM. The “Intrinsic Activity* (B-arrestin)” value in assay [1] (setting [4]) is 87% and 65%.

On to `Cc1c(OC2CCN(C(=O)OC(C)C)CC2)ncnc1N1CCn2nccc21` [Example 1, Isopropyl 4-{[6-(2,3-dihydro-1H-imidazo[1,2-b]pyrazol-1-yl)-5-methylpyrimidin-4-yl]oxy}piperidine-1-carboxylate], for which the EC50 in assay [2] (curve was extrapolated to 100% to calculate the EC50 (**), one value per run) is 8190 nM and 4570 nM; in assay [2] (hGPR119 HEK293-CRE beta-lactamase cells, 16 h incubation, one value per run), 612 nM and 386 nM and 1150 nM and 1440 nM. Further, the Emax in assay [2] (setting [5]) is 100%; in assay [2] (setting [4]), 110%. Also, the “Intrinsic Activity* (B-lactamase)” value in assay [2] (setting [4]) is 94% and 96%.

For `Cc1c(O[C@@H]2CCN(C(=O)OC3(C)CC3)C[C@@H]2F)ncnc1N1CCn2nccc21` (single isomer, unassigned) [Example 5], the EC50 in assay [1] (setting [3]) was 56 nM and 49 nM. The “Intrinsic Activity* (B-arrestin)” value in assay [1] (setting [4]) was 83% and 55%.
